We go through one substance from publication PMC3017052, “A Novel Peptide Derived from Human Apolipoprotein E Is an Inhibitor of Tumor Growth and Ocular Angiogenesis” (PLoS ONE, 2011).

The subject of data set [1] is MDA-MB-231 tumor xenografts. The data set can be described thus: Xenograft tumor growth assay in nude mice. It counts as in vivo. Here is the method: In order to assess the in vivo effect of apoEdp on tumor growth, we established subcutaneous human breast cancer MDA-MB-231 tumor xenografts in nude mice. Once tumor size became ∼100 mm^3 in approximately 10 days, mice were randomly divided into two groups, and treated with PBS or apoEdp at 40 mg/kg/day for three consecutive days.
Figure 6 ApoEdp inhibits tumor growth in vivo. MDA-MB-231 breast cancer cells were used for anti-tumor studies. A suspension of 3×10^6 cells in 0.1 mL of PBS was injected in the right dorsal flank. Tumors were monitored weekly in two diameters with digital calipers. Tumor volumes were determined using A×B^2×0.52 (where A is the longest and B is the shortest diameter). Tumors were allowed to grow to ∼100 mm^3 and mice were randomized. Single intralesional administration daily of PBS or 40 mg/kg/day of apoEdp for 3 consecutive days was performed and then stopped. Representative photographs of mouse xenograft treated with (A) apoEdp or PBS are shown.
Female nu/nu mice (8–12 weeks old, weighing ∼20 g) were obtained from […] (Harlan, Indianapolis, IN). […] The growth of the tumor xenograft was evaluated by determining the tumor volume using digital calipers every 7 days. Tumor volume was calculated using the relationship A×B^2×0.52, where A is the longest diameter and B the shortest. […]

In data set [2] the test system is VEGF-induced phosphorylation of Flk1, c-Src, Akt, eNOS, FAK, Erk1/2 in HUVECs. The data set can be described thus: Western blot of VEGF-induced phosphorylation of angiogenic signaling molecules. In kind it is cell-based, human. The following applies: HUVEC, apoEdp 6–50 µM pre-treated 1 hr, VEGF 10 ng/mL 10 min, n = 5. Here is the method: Figure 7 Inhibition by apoEdp of VEGF-induced Flk-1. HUVECs were pre-treated with apoEdp at the indicated concentrations for 1 hr; VEGF (10 ng/mL) added and incubated at 37°C for 10 min, to measure the phosphorylation of Flk-1(7-A), c-Src(7-B), Akt(7-C), eNOS(7-D), FAK(7-E), and Erk1/2(7-F). Equal loading of total proteins was also measured as described in Materials and Methods. Values were normalized by arbitrarily setting the densitometry of control cell signals 1.0 (mean ± SEM, n = 5). The asterisks indicate significant differences compared with VEGF stimulation (*p<0.05, **p<0.01 and ***p<0.001).
Confluent HUVECs were grown in EBM-2 supplemented with 1% FBS for 24 hr and the medium was replaced with fresh low serum (1% FBS) media in the presence or absence of varying concentrations of apoEdp (6–50 µM). After 1 hr, VEGF was added to a concentration of 10 ng/mL and incubated for 10 min so that the phosphorylated forms of angiogenic signaling molecules could be detected. The cells were then lysed, quantified for protein concentration, and separated on 4–20% pre-cast SDS–PAGE gels. Western blots of control and treated lysates were performed with antibodies against the phospho form of Flk-1, c-Src, FAK, ERK1/2, Akt, and eNOS. […] All primary and secondary antibodies were obtained from Santa Cruz Biotechnology (Santa Cruz, CA).

The subject of data set [3] is HUVEC. The data set can be described thus: Wound-healing/migration assay. It counts as cell-based, human. The following applies: 50 ng/mL VEGF, apoEdp 6–100 µM, three independent experiments; read-out: IC50, inhibition of VEGF-induced HUVEC wound-healing migration. Here is the method: An important angiogenic phenotype of ECs induced by VEGF is cell migration. The major aspects of VEGF action on ECs are its ability to act as a chemoattractant and to stimulate the angiogenic morphogenesis. […] Cell migration was examined after simulation of an artificial wound by perturbation of a cell monolayer using a 1-mL pipette tip. […] (Fig. 2C).
Figure 2 ApoEdp inhibits wound-healing migration in vitro. Monolayers of HUVECs were scraped and incubated in medium containing 50 ng/mL VEGF in the presence or absence of various concentrations of apoEdp. VEGF stimulated the migration of HUVECs in the scraped area. Representative photomicrographs of cells treated with (A) VEGF alone or with (B) VEGF and apoEdp together are shown. Solid lines indicate the initial scraping. […] The bar diagram is the quantitative measurement of cell migration inside the scraped area. The data shown are representative of three independent experiments. ** p<0. 01; and *** p<0.001.
To determine the effect of apoEdp on EC migration induced by VEGF, wound-healing assays were performed using HUVEC cells. Cells were allowed to grow to confluency on 6-well plates and washed twice with PBS. […] Migration of the cells into the wounded area was photographed with an Olympus U-RLF-T microscope and counted. […]

On to Ac-LRKLRKRLLLRKLRKRLL-NH2 [apoEdp], for which the “Tumor growth in MDA-MB-231 xenograft” value in data set [1] (nude (nu/nu) mice, 40 mg/kg/day intralesional for 3 consecutive days, compared to PBS-treated controls) was “significantly inhibited tumor growth”. Further, the “Observable toxicity during treatment” value in data set [1] (nude mice, 40 mg/kg/day for 3 days, data not shown) is “no sign of observable toxicity”. Moreover, the “VEGF-induced phosphorylation of Flk1, c-Src, Akt, eNOS, FAK and Erk1/2” value in data set [2] is recorded as “significantly inhibited”. Further, in data set [3], the IC50 was roughly 21.5 µM.
